Read-outs that look alike come from different tables or passages of the source. Starred links: 1 amine or outer side, 2 acyl side, 3 side chain; linkers in the order of their positions; H or OH if unused. Positions of bridges follow the written chain, without caps; N, C: chain ends. Non-standard residues stand in square brackets, D forms with d. Residues, ends and D or L forms follow the SMILES beside them. ξ: configuration not given here. *: point of attachment. X33 = CCCCCCCCCCCC(=O)Nc1cc(NC(=O)CCCCCCCCCCC)cc(C(=O)*)c1; Adamantane1carbonyl = O=C(C12CC3CC(CC(C3)C1)C2)*; X18 = CC(NC(=O)/C=C/c1ccco1)C(N[*:1])C(=O)[*:2]; Propanoyl(3-SO2Ph) = O=C(CCS(=O)(=O)c1ccccc1)*; X29 = COCCOCCOCC(=O)NC(C)C(N[*:1])C(=O)[*:2]; X3 = CC(NC(=O)[C@H](N)CN)C(N[*:1])C(=O)[*:2]; ξAbu(βξ-NH2) = CC(N[*:3])C(N[*:1])C(=O)[*:2]; Benzoyl(3-OPh) = O=C(c1cccc(Oc2ccccc2)c1)*; Benzoyl(4-tBu) = CC(C)(C)c1ccc(C(=O)*)cc1; Pentadecanoyl = CCCCCCCCCCCCCCC(=O)*; ξAsp(βξ-Me) = CC(C(=O)O)C(N)C(=O)O; X13 = O=C(CCCCCCCCCCOc1ccccc1)*; ξAbu(3ξ-NH2) = CC(N)C(N)C(=O)O; X9 = O=C(c1ccccc1Cc1ccccc1)*; Pip = O=C(O)[CH]1CCCCN1; ξD = NC(CC(=O)O)C(=O)O; ξPip = O=C(O)C1CCCCN1; ξV = CC(C)C(N)C(=O)O; ξP = O=C(O)C1CCCN1
System: Staphylococcus aureus (MSSA)
Method in brief: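 Broth microdilution MIC per NCCLS M7-A6 with doubling serial dilutions, in cation-adjusted Mueller-Hinton broth supplemented with 0.625 mM calcium.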

Structure (SMILES)	MIC (24 h) [µg/mL]	MIC (S. aureus (MSSA), CAMHB supplemented with 0.625 mM calcium, 24 hours at about 37° C., a range = compound tested multiple times) [µg/mL]
CCCCCCCCCCCC(=O)Nc1cc(NC(=O)CCCCCCCCCCC)cc(C(=O)NC(CC(=O)O)C(=O)NC2C(=O)N3CCCCC3C(=O)NC(C(C)C(=O)O)C(=O)NC(CC(=O)O)C(=O)NCC(=O)NC(CC(=O)O)C(=O)NCC(=O)NC(C(C)N)C(=O)NC(C(C)C)C(=O)N3CCCC3C(=O)NC2C)c1 (stereo not drawn) [Compound 320, N,N′-di-C12-(M,M-Diaminobenzoyl)-Amphomycin] (X33-D[ξAbu(βξ-NH2)][Pip][ξAsp(βξ-Me)]DGDG[ξAbu(3ξ-NH2)]VP; lactam 2-C; configuration not given here)	2	–
CC(C)C1NC(=O)C(C(C)N)NC(=O)CNC(=O)C(CC(=O)O)NC(=O)CNC(=O)C(CC(=O)O)NC(=O)C(C(C)C(=O)O)NC(=O)C2CCCCN2C(=O)C(NC(=O)C(CC(=O)O)NC(=O)c2ccccc2Cc2ccccc2)C(C)NC(=O)C2CCCN2C1=O (stereo not drawn) [Compound 323, (2-(Phenylmethyl)-Benzoyl)-Amphomycin] (X9-D[ξAbu(βξ-NH2)][Pip][ξAsp(βξ-Me)]DGDG[ξAbu(3ξ-NH2)]VP; lactam 2-C; configuration not given here)	>64	–
CC(C)C1NC(=O)C(C(C)N)NC(=O)CNC(=O)C(CC(=O)O)NC(=O)CNC(=O)C(CC(=O)O)NC(=O)C(C(C)C(=O)O)NC(=O)C2CCCCN2C(=O)C(NC(=O)C(CC(=O)O)NC(=O)c2ccc(C(C)(C)C)cc2)C(C)NC(=O)C2CCCN2C1=O (stereo not drawn) [Compound 326, (4-Tbutylbenzoyl)-Amphomycin] ({Benzoyl(4-tBu)}-D[ξAbu(βξ-NH2)][Pip][ξAsp(βξ-Me)]DGDG[ξAbu(3ξ-NH2)]VP; lactam 2-C; configuration not given here)	>64	–
CC(C)C1NC(=O)C(C(C)N)NC(=O)CNC(=O)C(CC(=O)O)NC(=O)CNC(=O)C(CC(=O)O)NC(=O)C(C(C)C(=O)O)NC(=O)C2CCCCN2C(=O)C(NC(=O)C(CC(=O)O)NC(=O)c2cccc(Oc3ccccc3)c2)C(C)NC(=O)C2CCCN2C1=O (stereo not drawn) [Compound 327, (3-(Phenoxy)-Benzoyl)-Amphomycin] ({Benzoyl(3-OPh)}-D[ξAbu(βξ-NH2)][Pip][ξAsp(βξ-Me)]DGDG[ξAbu(3ξ-NH2)]VP; lactam 2-C; configuration not given here)	>64	–
CCCCCCCCCCCCCCC(=O)NC(C)C1NC(=O)CNC(=O)C(CC(=O)O)NC(=O)CNC(=O)C(CC(=O)O)NC(=O)C(C(C)C(=O)O)NC(=O)C2CCCCN2C(=O)C(NC(=O)C(CC(=O)O)NC(=O)CNC(=O)[C@@H](N)CCCCN)C(C)NC(=O)C2CCCN2C(=O)C(C(C)C)NC1=O (stereo partly drawn) [Compound 331, Lys-Gly-Amphomycin-9-C15] (H-KG[ξD][ξAbu(βξ-NH2)][ξPip][ξAsp(βξ-Me)][ξD]G[ξD]G[ξAbu(βξ-NH2)](Pentadecanoyl)[ξV][ξP]; lactam 4-C)	>64	–
CC(C)C1NC(=O)C(C(C)N)NC(=O)CNC(=O)C(CC(=O)O)NC(=O)CNC(=O)C(CC(=O)O)NC(=O)C(C(C)C(=O)O)NC(=O)C2CCCCN2C(=O)C(NC(=O)C(CC(=O)O)NC(=O)C23CC4CC(CC(C4)C2)C3)C(C)NC(=O)C2CCCN2C1=O (stereo not drawn) [Compound 336] (Adamantane1carbonyl-D[ξAbu(βξ-NH2)][Pip][ξAsp(βξ-Me)]DGDG[ξAbu(3ξ-NH2)]VP; lactam 2-C; configuration not given here)	>64	–
CCCCCCCCCCCCCCC(=O)NC(CC(=O)O)C(=O)NC1C(=O)N2CCCCC2C(=O)NC(C(C)C(=O)O)C(=O)NC(CC(=O)O)C(=O)NCC(=O)NC(CC(=O)O)C(=O)NCC(=O)NC(C(C)NC(=O)CCCCCCCCCCCCCC)C(=O)NC(C(C)C)C(=O)N2CCCC2C(=O)NC1C (stereo not shown) [Compound 342, C15-Amphomycin-9-C15]	>64	–
CCCCCCCCCCCCCCC(=O)NC(CC(=O)O)C(=O)NC1C(=O)N2CCCCC2C(=O)NC(C(C)C(=O)O)C(=O)NC(CC(=O)O)C(=O)NCC(=O)NC(CC(=O)O)C(=O)NCC(=O)NC(C(C)NC(=O)COCCOCCOC)C(=O)NC(C(C)C)C(=O)N2CCCC2C(=O)NC1C (stereo not drawn) [Compound 343, C15-Amphomycin-9-([2-(2-Methoxy-Ethoxy)-Ethoxy]-Acetyl)] (Pentadecanoyl-D[ξAbu(βξ-NH2)][Pip][ξAsp(βξ-Me)]DGDG[X29]VP; lactam 2-C; configuration not given here)	64	–
CCCCCCCCCCCCCCC(=O)NC(CC(=O)O)C(=O)NC1C(=O)N2CCCCC2C(=O)NC(C(C)C(=O)O)C(=O)NC(CC(=O)O)C(=O)NCC(=O)NC(CC(=O)O)C(=O)NCC(=O)NC(C(C)NC(=O)CCCCCCCCCCC)C(=O)NC(C(C)C)C(=O)N2CCCC2C(=O)NC1C (stereo not shown) [Compound 347, C15-Amphomycin-9-C12]	>64	–
CCCCCCCCCCCCCCC(=O)NC(CC(=O)O)C(=O)NC1C(=O)N2CCCCC2C(=O)NC(C(C)C(=O)O)C(=O)NC(CC(=O)O)C(=O)NCC(=O)NC(CC(=O)O)C(=O)NCC(=O)NC(C(C)NC(=O)CCCCCCCCCCOc2ccccc2)C(=O)NC(C(C)C)C(=O)N2CCCC2C(=O)NC1C (stereo not drawn) [Compound 348, C15-Amphomycin-9-(11-Phenoxyundecanoyl)] (Pentadecanoyl-D[ξAbu(βξ-NH2)][Pip][ξAsp(βξ-Me)]DGDG[ξAbu(βξ-NH2)](X13)VP; lactam 2-C; configuration not given here)	>64	–
CCCCCCCCCCCCCCC(=O)NC(CC(=O)O)C(=O)NC1C(=O)N2CCCCC2C(=O)NC(C(C)C(=O)O)C(=O)NC(CC(=O)O)C(=O)NCC(=O)NC(CC(=O)O)C(=O)NCC(=O)NC(C(C)NC(=O)CCCc2cc3ccc4cccc5ccc(c2)c3c45)C(=O)NC(C(C)C)C(=O)N2CCCC2C(=O)NC1C (stereo not shown) [Compound 351, C15-Amphomycin-9-(4-(Pyren-2-yl)Butyroyl)]	–	>64
CCCCCCCCCCCCCCC(=O)NC(CC(=O)O)C(=O)NC1C(=O)N2CCCCC2C(=O)NC(C(C)C(=O)O)C(=O)NC(CC(=O)O)C(=O)NCC(=O)NC(CC(=O)O)C(=O)NCC(=O)NC(C(C)NC(=O)CCC(=O)O)C(=O)NC(C(C)C)C(=O)N2CCCC2C(=O)NC1C (stereo not shown) [Compound 352, C15-Amphomycin-9-Suc]	>64	–

The next lines start with results.

MIC (24 h) [µg/mL]	Structure (SMILES)	MIC (S. aureus (MSSA), CAMHB supplemented with 0.625 mM calcium, 24 hours at about 37° C., a range = compound tested multiple times) [µg/mL]
>64	CCCCCCCCNC(=O)NCCC(=O)NC(CC(=O)O)C(=O)NC1C(=O)N2CCCCC2C(=O)NC(C(C)C(=O)O)C(=O)NC(CC(=O)O)C(=O)NCC(=O)NC(CC(=O)O)C(=O)NCC(=O)NC(C(C)N)C(=O)NC(C(C)C)C(=O)N2CCCC2C(=O)NC1C (stereo not drawn) [Compound 321, CH3—(CH2)7—NH—C(═O)-(β-Ala)-Amphomycin]	–
2	CCCCCCCCCCCCCCC(=O)NC(CC(=O)O)C(=O)NC1C(=O)N2CCCCC2C(=O)NC(C(C)C(=O)O)C(=O)NC(CC(=O)O)C(=O)NCC(=O)NC(CC(=O)O)C(=O)NCC(=O)NC(C(C)NC(=O)[C@H](N)CN)C(=O)NC(C(C)C)C(=O)N2CCCC2C(=O)NC1C (stereo partly drawn) [Compound 328, C15-Amphomycin-9-(D-Dap)] (Pentadecanoyl-[ξD][ξAbu(βξ-NH2)][ξPip][ξAsp(βξ-Me)][ξD]G[ξD]G[X3][ξV][ξP]; lactam 2-C)	–
1	CC(C)C1NC(=O)C(C(C)N)NC(=O)CNC(=O)C(CC(=O)O)NC(=O)CNC(=O)C(CC(=O)O)NC(=O)C(C(C)C(=O)O)NC(=O)C2CCCCN2C(=O)C(NC(=O)C(CC(=O)O)NC(=O)CCCCCCCCCCOc2ccccc2)C(C)NC(=O)C2CCCN2C1=O (stereo not drawn) [Compound 333, (11-(Phenoxy)Undecanoyl)-Amphomycin] (X13-D[ξAbu(βξ-NH2)][Pip][ξAsp(βξ-Me)]DGDG[ξAbu(3ξ-NH2)]VP; lactam 2-C; configuration not given here)	–
0.5	CCCCCCCCCCCCOc1cccc2ccc(C(=O)NC(CC(=O)O)C(=O)NC3C(=O)N4CCCCC4C(=O)NC(C(C)C(=O)O)C(=O)NC(CC(=O)O)C(=O)NCC(=O)NC(CC(=O)O)C(=O)NCC(=O)NC(C(C)N)C(=O)NC(C(C)C)C(=O)N4CCCC4C(=O)NC3C)nc12 (stereo not shown) [Compound 339, (8-Dodecyloxy-Quinoline-2-Carbonyl)-Amphomycin]	–
>64	CCCCCCCCCCCCCCC(=O)NC(CC(=O)O)C(=O)NC1C(=O)N2CCCCC2C(=O)NC(C(C)C(=O)O)C(=O)NC(CC(=O)O)C(=O)NCC(=O)NC(CC(=O)O)C(=O)NCC(=O)NC(C(C)NC(=O)[C@@H](N)Cc2ccccc2)C(=O)NC(C(C)C)C(=O)N2CCCC2C(=O)NC1C (stereo partly shown) [Compound 341, C15-Amphomycin-9-Phe]	–
>64	CCCCCCCCCC(=O)N(C)CC(=O)NC(CC(=O)O)C(=O)NC1C(=O)N2CCCCC2C(=O)NC(C(C)C(=O)O)C(=O)NC(CC(=O)O)C(=O)NCC(=O)NC(CC(=O)O)C(=O)NCC(=O)NC(C(C)N)C(=O)NC(C(C)C)C(=O)N2CCCC2C(=O)NC1C (stereo not shown) [Compound 344, C10-Sar-Amphomycin]	–
64	CCCCCCCCCCCCCC(=O)N(C)CC(=O)NC(CC(=O)O)C(=O)NC1C(=O)N2CCCCC2C(=O)NC(C(C)C(=O)O)C(=O)NC(CC(=O)O)C(=O)NCC(=O)NC(CC(=O)O)C(=O)NCC(=O)NC(C(C)N)C(=O)NC(C(C)C)C(=O)N2CCCC2C(=O)NC1C (stereo not shown) [Compound 345, C14-Sar-Amphomycin]	–
>64	CCCCCCCC(=O)N(C)CC(=O)NC(CC(=O)O)C(=O)NC1C(=O)N2CCCCC2C(=O)NC(C(C)C(=O)O)C(=O)NC(CC(=O)O)C(=O)NCC(=O)NC(CC(=O)O)C(=O)NCC(=O)NC(C(C)N)C(=O)NC(C(C)C)C(=O)N2CCCC2C(=O)NC1C (stereo not shown) [Compound 346, C8-Sar-Amphomycin]	–
64	CCCCCCCCCCCCCCC(=O)NC(CC(=O)O)C(=O)NC1C(=O)N2CCCCC2C(=O)NC(C(C)C(=O)O)C(=O)NC(CC(=O)O)C(=O)NCC(=O)NC(CC(=O)O)C(=O)NCC(=O)NC(C(C)NC(=O)/C=C/c2ccco2)C(=O)NC(C(C)C)C(=O)N2CCCC2C(=O)NC1C (stereo not drawn) [Compound 349, C15-Amphomycin-9-(3-Furan-2-yl-Acryloyl)] (Pentadecanoyl-D[ξAbu(βξ-NH2)][Pip][ξAsp(βξ-Me)]DGDG[X18]VP; lactam 2-C; configuration not given here)	–
64	CCCCCCCCCCCCCCC(=O)NC(CC(=O)O)C(=O)NC1C(=O)N2CCCCC2C(=O)NC(C(C)C(=O)O)C(=O)NC(CC(=O)O)C(=O)NCC(=O)NC(CC(=O)O)C(=O)NCC(=O)NC(C(C)NC(=O)CCS(=O)(=O)c2ccccc2)C(=O)NC(C(C)C)C(=O)N2CCCC2C(=O)NC1C (stereo not drawn) [Compound 350, C15-Amphomycin-9-(3-(Benzenesulfonyl)Propionoyl)] (Pentadecanoyl-D[ξAbu(βξ-NH2)][Pip][ξAsp(βξ-Me)]DGDG[ξAbu(βξ-NH2)](Propanoyl(3-SO2Ph))VP; lactam 2-C; configuration not given here)	–

— US7868135B2, “Compositions of lipopeptide antibiotic derivatives and methods of use thereof” (priority 2003, dated 2011)
